Data reported in patent publication US7888079B2, “Nε-acyl-L-lysine-specific aminoacylase” (Ajinomoto Co., Inc., priority 2005, dated 2011).
Where two headings read alike, the source gives them in different places. Blank lines part the entries; values can stand above or below the compound they belong to.

Columns and labels:
[1] = system: aminoacylase of the present invention (Nε-acyl-L-lysine-specific aminoacylase); assay: Effect of various inhibitors on the hydrolyzing activity of the aminoacylase; format: biochemical, Streptomyces mobaraensis; details: hydrolysis activity where nothing was added = 100
Procedure: The activity of the enzyme of the present invention can be measured based on a method of measuring Nε-acetyl-L-lysine hydrolysis activity. For example, the activity of the enzyme of the present invention may be measured by incubating the enzyme with a defined concentration of Nε-acetyl-L-lysine as a substrate for 30 minutes at 37° C. (50 mM Tris-HCl buffer, pH 8.0), and assaying the released L-lysine. 1 U (unit) of the enzyme of the present invention is defined as the amount of the enzyme required to hydrolyze 1 micromole of Nε-acetyl-L-lysine per hour when incubated for 30 minutes at 37° C. (50 mM Tris-HCl buffer, pH 8.0) with 4 mM Nε-acetyl-L-lysine as the substrate, and the released L-lysine was assayed by the acidic ninhydrin method.
The activity of the enzyme of the present invention was measured by incubating the enzyme (50 mM Tris-HCl buffer, pH 8.0) for 30 minutes at 37° C. with a defined concentration of Nε-acetyl-L-lysine as the substrate, and assaying the released L-lysine. 1 U (unit) of the enzyme of the present invention is defined as the amount of the enzyme required to hydrolyze 1 micromole of Nε-acetyl-L-lysine per hour at 37° C. for 30 minutes in 50 mM Tris-HCl buffer, pH 8.0 with 4 mM of Nε-acetyl-L-lysine as the substrate, and the released L-lysine was assayed by acidic ninhydrin method.
The effects of various inhibitors on hydrolysis activity were compared by the measurement methods described above using a purified enzyme obtained as in Example 2. In Table 2, the enzyme activity is presented as a relative value (%) given 100 as hydrolysis activity where nothing was added.

[2] = system: aminoacylase of the present invention (Nε-acyl-L-lysine-specific aminoacylase); assay: Effects of metal ions on hydrolysis activity of enzyme dialyzed against 0-phenanthroline solution; format: biochemical, Streptomyces mobaraensis; details: final concentration 0.1 mM
[3] = system: enzyme of the present invention (aminoacylase); assay: Reactivity of the enzyme on various N-acetyl-L-amino acids (substrate specificity); format: biochemical, Streptomyces mobaraensis; details: for Specific activity (relative activity): relative to Nε-acetyl-L-Lys = 100%; for Specific activity: 1-hour reaction, 50 mM Tris-HCl buffer pH 8.2, 37° C., ND: below detection limit
Procedure: (§1) The reactivity of the enzyme of the present invention on various N-acetyl-L-amino acids (final concentration 4 mM) was studied to investigate substrate specificity. In Tables 4 and 5 below, the amount (micro mole) of substrate (acetyl-L-amino acid) hydrolyzed per 1 mg of enzyme protein in a 1-hour reaction in 50 mM Tris-HCl buffer (pH 8.2) at 37° C. is given as specific activity.

S. mobaraensis enzyme = assay: Hydrolysis activity on Nε-acyl-L-lysines with various acyl groups, S. mobaraensis enzyme; format: biochemical, Streptomyces mobaraensis; details: for Specific activity, S. mobaraensis enzyme: 1-hour reaction, 50 mM Tris-HCl buffer pH 8.2, 37° C.
Procedure: as §1
(§2) Substrate specificity was investigated based on hydrolysis activity on Nε-acyl-L-lysines with various acyl groups.

A. pestifer enzyme [4] = details: values marked * from Chibata et al. (1970); cited from earlier work
A. pestifer enzyme [5] = assay: Hydrolysis activity on Nε-acyl-L-lysines with various acyl groups, A. pestifer enzyme; format: biochemical, Achromobacter pestifer
From the text: as §2

[6] = hydrolysis activity with nothing added = 100

SMILES: c1cnc2c(c1)ccc1cccnc12 [0-phenanthroline]
Relative activity (%) ([1]; added concentration 1 mM): 10.3%

SMILES: [Ca+2].[Cl-].[Cl-] [CaCl2]
Relative activity (%) [2, 6]: 110.3%

SMILES: [Cl-].[Cl-].[Co+2] [CoCl2]
Relative activity (%) [2]: 140.8%

SMILES: O=S(=O)([O-])[O-].[Cu+2] [CuSO4]
Relative activity (%) [2, 6]: 67.2%

SMILES: O[C@@H](CS)[C@@H](O)CS [DTT]
Relative activity (%) ([1]; added concentration 1 mM): 64.7%

SMILES: O=C(O)CN(CCN(CC(=O)O)CC(=O)O)CC(=O)O [EDTA]
Relative activity (%) ([1]; added concentration 1 mM): 74.6%

SMILES: O=S(=O)([O-])[O-].[Fe+2] [FeSO4]
Relative activity (%) [2, 6]: 85.3%

SMILES: N[C@@H](CCC(=O)N[C@@H](CS)C(=O)NCC(=O)O)C(=O)O [GSH]
Relative activity (%) ([1]; added concentration 1 mM): 80.0%

SMILES: NC(=O)CI [Iodoacetamide]
Relative activity (%) ([1]; added concentration 1 mM): 83.1%

SMILES: CC(=O)NCCCC[C@H](N)C(=O)O [Nε-acetyl-L-Lys]
Specific activity (relative activity) [3]: 100%
hydrolysis activity on N-acetyl-L-amino acids (in words) ([3]; substrate 4 mM): strong hydrolysis activity
Specific activity ([3]; substrate 4 mM): 3370 µmol/mg
Specific activity, S. mobaraensis enzyme (S. mobaraensis enzyme): 3,370 μmol/mg
Specific activity, A. pestifer enzyme (A. pestifer enzyme [4]): 2,700* μmol/mg

SMILES: N[C@@H](CCCCNC(=O)c1ccccc1)C(=O)O [Nε-benzoyl-L-Lys]
Specific activity, S. mobaraensis enzyme (S. mobaraensis enzyme): 1,380 μmol/mg
Specific activity, A. pestifer enzyme (A. pestifer enzyme [4]): 15,000* μmol/mg

SMILES: N[C@@H](CCCCNC(=O)CCl)C(=O)O [Nε-chloroacetyl-L-lys]
Specific activity, S. mobaraensis enzyme (S. mobaraensis enzyme): 1,030 μmol/mg
Specific activity, A. pestifer enzyme (A. pestifer enzyme [4]): 5,300* μmol/mg

SMILES: CCCCCCCC(=O)NCCCC[C@H](N)C(=O)O [Nε-octanoyl-L-Lys]
Specific activity, S. mobaraensis enzyme (S. mobaraensis enzyme): 570 µmol/mg
Specific activity, A. pestifer enzyme (A. pestifer enzyme [4]): 12,500* μmol/mg

SMILES: O=C(O)c1cc[c]([Hg][Cl])cc1 [PCMB]
Relative activity (%) ([1]; added concentration 1 mM): 86.1%

Continued, values first:

Relative activity (%) [2, 6]: 110.2%
SMILES: [Cl-].[K+] [KCl]

Relative activity (%) ([1]; added concentration 1 mM): 77.6%
SMILES: N[C@@H](CS)C(=O)O [L-cysteine]

Relative activity (%) [2, 6]: 121.1%
SMILES: O=S(=O)([O-])[O-].[Mg+2] [MgSO4]

Relative activity (%) [2, 6]: 114.1%
SMILES: O=S(=O)([O-])[O-].[Mn+2] [MnSO4]

Specific activity (relative activity) [3]: 2.1%
Specific activity ([3]; substrate 4 mM): 70 µmol/mg
SMILES: CC(=O)N[C@@H](CCCCN)C(=O)O [Nα-acetyl-L-Lys]

hydrolysis activity of the enzyme of the present invention (in words) (S. mobaraensis enzyme): no hydrolysis activity
Specific activity, S. mobaraensis enzyme (S. mobaraensis enzyme): 0 µmol/mg
SMILES: CCCCCCCCCCCC(=O)N[C@@H](CCCCN)C(=O)O [Nα-lauroyl-L-Lys]

Specific activity, S. mobaraensis enzyme (S. mobaraensis enzyme): 28 µmol/mg
hydrolysis activity of the enzyme from A. pestifer (in words) (A. pestifer enzyme [5]): very little hydrolysis activity
Specific activity, A. pestifer enzyme (A. pestifer enzyme [5]; value without literature mark): 0.4 µmol/mg
SMILES: CCCCCCCCCCCC(=O)NCCCC[C@H](N)C(=O)O [Nε-lauroyl-L-Lys]

Relative activity (%) [2, 6]: 103.3%
SMILES: O=S(=O)([O-])[O-].[Zn+2] [ZnSO4]

Relative activity (%) ([1]; added concentration 10 mM): 87.5%
SMILES: OCCS [β-mercaptoethanol]
